Source: PMC3072440 (Chemical research in toxicology, 2010)
Like-named read-outs stand apart in the source and are kept apart here. Blank lines part the entries; values can stand above or below the molecule they belong to.

How the values were obtained:
human P450 3A4 [1] = molecular target: T1, human P450 3A4 (Homo sapiens, UniProt P08684); assay: Spectral binding titration with purified P450 3A4; details: decreases in α and β bands monitored; up to 100 µM
human P450 2C9 [2] = molecular target: T2, human P450 2C9 (Homo sapiens, UniProt P11712); assay: Spectral binding titration with purified P450 2C9; details: concentrations up to 100 µM; results not shown
T2 sequence (P11712 whole entry): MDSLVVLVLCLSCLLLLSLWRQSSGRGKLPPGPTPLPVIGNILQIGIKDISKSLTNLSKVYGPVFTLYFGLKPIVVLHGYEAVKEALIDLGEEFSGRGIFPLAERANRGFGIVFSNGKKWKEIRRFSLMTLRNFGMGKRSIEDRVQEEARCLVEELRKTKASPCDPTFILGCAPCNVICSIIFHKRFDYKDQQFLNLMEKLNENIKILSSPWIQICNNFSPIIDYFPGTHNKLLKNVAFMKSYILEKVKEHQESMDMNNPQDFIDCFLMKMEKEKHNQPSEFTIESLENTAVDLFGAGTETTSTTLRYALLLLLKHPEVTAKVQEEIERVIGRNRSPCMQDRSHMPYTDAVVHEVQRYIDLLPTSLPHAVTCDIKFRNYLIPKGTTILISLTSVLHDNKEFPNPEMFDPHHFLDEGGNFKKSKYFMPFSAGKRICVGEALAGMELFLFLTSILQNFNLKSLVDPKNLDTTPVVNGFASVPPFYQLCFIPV

human P450 3A4 [3] = molecular target: T1, human P450 3A4; assay: Effect on P450 3A4-catalyzed midazolam 1’-hydroxylation
human P450 3A4 [4] = molecular target: T1, human P450 3A4; assay: Inhibition of P450 3A4-dependent midazolam 4-hydroxylation
human P450 2C9 [5] = molecular target: T2, human P450 2C9; assay: Inhibition of P450 2C9-dependent flurbiprofen 4’-hydroxylation
human P450 1B1 = molecular target: T3, human P450 1B1 (Homo sapiens, UniProt Q16678); assay: Inhibition of P450 1B1-dependent EROD activity; type: biochemical
T3 sequence (Q16678 1-543): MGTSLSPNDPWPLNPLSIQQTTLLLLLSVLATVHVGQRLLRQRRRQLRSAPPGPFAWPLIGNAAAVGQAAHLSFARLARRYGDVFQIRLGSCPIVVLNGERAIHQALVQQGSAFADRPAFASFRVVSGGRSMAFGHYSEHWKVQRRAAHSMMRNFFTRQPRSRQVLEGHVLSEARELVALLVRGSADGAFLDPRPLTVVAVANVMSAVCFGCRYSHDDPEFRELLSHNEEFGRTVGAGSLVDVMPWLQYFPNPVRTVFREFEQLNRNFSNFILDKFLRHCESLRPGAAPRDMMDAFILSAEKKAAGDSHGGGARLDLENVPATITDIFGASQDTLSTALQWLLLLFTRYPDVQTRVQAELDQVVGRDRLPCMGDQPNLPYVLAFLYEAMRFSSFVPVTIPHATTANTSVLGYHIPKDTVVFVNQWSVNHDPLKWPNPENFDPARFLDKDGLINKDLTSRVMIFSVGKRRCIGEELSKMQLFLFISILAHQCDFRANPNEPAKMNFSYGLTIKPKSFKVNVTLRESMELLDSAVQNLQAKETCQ

human P450 1A1 = molecular target: T4, human P450 1A1 (Homo sapiens, UniProt P04798); assay: Inhibition of P450 1A1-dependent EROD activity; type: biochemical
T4 sequence (P04798 1-512): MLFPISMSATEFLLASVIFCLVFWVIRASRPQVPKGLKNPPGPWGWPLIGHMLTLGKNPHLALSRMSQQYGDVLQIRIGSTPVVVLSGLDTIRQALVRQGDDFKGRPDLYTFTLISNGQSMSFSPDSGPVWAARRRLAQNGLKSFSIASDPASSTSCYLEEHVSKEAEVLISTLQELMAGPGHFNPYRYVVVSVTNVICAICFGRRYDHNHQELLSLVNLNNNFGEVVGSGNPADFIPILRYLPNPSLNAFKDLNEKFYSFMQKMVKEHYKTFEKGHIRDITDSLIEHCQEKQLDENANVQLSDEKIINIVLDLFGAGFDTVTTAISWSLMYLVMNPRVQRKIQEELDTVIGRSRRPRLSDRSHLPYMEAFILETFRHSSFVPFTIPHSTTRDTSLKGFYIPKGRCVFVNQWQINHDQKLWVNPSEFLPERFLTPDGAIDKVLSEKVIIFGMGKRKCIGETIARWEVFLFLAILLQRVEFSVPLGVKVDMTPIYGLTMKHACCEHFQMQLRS

human P450 1A2 = molecular target: T5, human P450 1A2 (Homo sapiens, UniProt P05177)
T5 sequence (P05177 1-516): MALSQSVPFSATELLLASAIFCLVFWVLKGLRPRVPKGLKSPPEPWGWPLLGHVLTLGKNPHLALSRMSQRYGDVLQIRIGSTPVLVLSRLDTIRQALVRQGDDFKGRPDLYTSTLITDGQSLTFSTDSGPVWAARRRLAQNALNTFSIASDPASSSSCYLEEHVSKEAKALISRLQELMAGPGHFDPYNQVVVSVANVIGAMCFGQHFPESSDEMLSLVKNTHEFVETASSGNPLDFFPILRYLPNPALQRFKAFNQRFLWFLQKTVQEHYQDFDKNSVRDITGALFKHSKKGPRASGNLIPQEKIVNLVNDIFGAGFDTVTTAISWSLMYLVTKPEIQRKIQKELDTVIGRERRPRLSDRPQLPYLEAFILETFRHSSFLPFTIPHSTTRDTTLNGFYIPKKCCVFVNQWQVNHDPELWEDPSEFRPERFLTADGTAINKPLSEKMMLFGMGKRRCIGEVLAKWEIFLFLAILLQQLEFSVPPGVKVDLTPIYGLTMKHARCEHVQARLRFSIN

human P450 2C9 [6] = molecular target: T2, human P450 2C9

T1 sequence (P08684 whole entry): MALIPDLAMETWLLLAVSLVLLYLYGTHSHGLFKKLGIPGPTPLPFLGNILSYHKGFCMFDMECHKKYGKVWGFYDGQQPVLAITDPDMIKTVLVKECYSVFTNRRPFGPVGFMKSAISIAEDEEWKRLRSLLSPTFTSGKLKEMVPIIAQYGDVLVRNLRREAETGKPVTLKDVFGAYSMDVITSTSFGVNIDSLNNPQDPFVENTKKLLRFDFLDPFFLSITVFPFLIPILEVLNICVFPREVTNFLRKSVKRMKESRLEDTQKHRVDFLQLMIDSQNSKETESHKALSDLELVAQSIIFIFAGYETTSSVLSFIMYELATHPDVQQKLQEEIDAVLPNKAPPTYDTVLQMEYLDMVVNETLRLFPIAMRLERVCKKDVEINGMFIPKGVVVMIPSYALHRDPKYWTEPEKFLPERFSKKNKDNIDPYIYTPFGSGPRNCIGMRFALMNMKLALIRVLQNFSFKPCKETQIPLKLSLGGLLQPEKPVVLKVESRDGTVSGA

SMILES: COc1ccc(-c2cc(=O)c3c(O)cc(O)cc3o2)cc1 [4’M57DHF, 4’-methoxy-5,7-dihydroxyflavone]
- spectral change / Type I binding spectra with P450 3A4, in words (human P450 3A4 [1]): induced spectral changes
- spectral changes with P450 2C9, in words (human P450 2C9 [2]): did not induce spectral changes
- effect on formation of 1’-hydroxymidazolam by P450 3A4, in words (human P450 3A4 [3]): slightly activated
- inhibition of P450 3A4 midazolam 4-hydroxylation, in words (human P450 3A4 [4]): significantly inhibited
- IC50 (human P450 2C9 [5]): 650 ± 130 nM
- inhibition of P450 2C9 flurbiprofen 4’-hydroxylation, in words (human P450 2C9 [5]): strong inhibitors

SMILES: C[C@@H]1O[C@@H](O[C@H]2[C@H](Oc3cc(O)c4c(c3)O[C@H](c3ccc(O)cc3)CC4=O)O[C@H](CO)[C@@H](O)[C@@H]2O)[C@H](O)[C@H](O)[C@H]1O [4’57THFvaG, 4’,5,7-trihydroxyflavanone glycoside]
- inhibition of P450 1B1 EROD, in words (human P450 1B1): weak inhibitor

SMILES: C#CCOc1ccccc1-c1cc(=O)c2c(ccc3ccccc32)o1 [BNF2’PE, β–naphthoflavone 2’-propargyl ether]
- inhibition of P450 1A2 EROD, in words (human P450 1A2): only weakly

SMILES: COc1ccc(-c2cc(=O)c3c(O)cc(O)cc3o2)cc1OC [3’4’DM57DHF, 3’4’-dimethoxy-5,7-dihydroxyflavone]
- IC50 (human P450 1B1; read-out: inhibition of substrate oxidation by P450s (IC50), P450 1B1, 7-ethoxyresorufin O-deethylation, 2.5 µM substrate, bacterial membranes, means ± SD): 19 ± 3 nM
- IC50 (human P450 1A1): 72 ± 11 nM
- IC50 (human P450 1A2): 11 ± 3 nM
- IC50 (human P450 2C9 [6]): 880 ± 210 nM
- inhibition of P450 2C9 flurbiprofen 4’-hydroxylation, in words (human P450 2C9 [6]): strong inhibitors
- IC50 of P450 3A4 fold higher than that for P450 1B1 (human P450 3A4 [4]; ratio IC50 3A4 / IC50 1B1): 2000 fold
- IC50 of P450 3A4 fold higher than that of P450 2C9 (human P450 3A4 [4]; ratio IC50 3A4 / IC50 2C9): 43 fold

SMILES: O=c1c(O)c(-c2ccccc2)oc2cc(O)cc(O)c12 [357THF, 3,5,7-trihydroxyflavone]
- spectral change / Type I binding spectra with P450 3A4, in words (human P450 3A4 [1]): induced spectral changes
- spectral changes with P450 2C9, in words (human P450 2C9 [2]): did not induce spectral changes
- effect on formation of 1’-hydroxymidazolam by P450 3A4, in words (human P450 3A4 [3]): slightly activated
- IC50 (human P450 3A4 [4]): 2300 ± 300 nM
- inhibition of P450 3A4 midazolam 4-hydroxylation, in words (human P450 3A4 [4]): significantly inhibited
- IC50 (human P450 2C9 [5]): 200 ± 30 nM
- inhibition of P450 2C9 flurbiprofen 4’-hydroxylation, in words (human P450 2C9 [5]): strong inhibitors

More lines, now with the values ahead:

- inhibition of P450 1A1 EROD, in words (human P450 1A1): strongly inhibited
- spectral changes with P450 2C9, in words (human P450 2C9 [2]): did not induce spectral changes
- IC50 (human P450 3A4 [4]): 18000 nM
SMILES: O=c1cc(-c2ccccc2)oc2c1ccc1ccccc12 [ANF, α-naphthoflavone]

- spectral change / Type I binding spectra with P450 3A4, in words (human P450 3A4 [1]): induced spectral changes
- inhibition of P450 3A4 midazolam 4-hydroxylation, in words (human P450 3A4 [4]): not very effective inhibitors
SMILES: COc1ccc(-c2cc(=O)c3ccccc3o2)cc1 [4’MF, 4’-methoxyflavone]

- spectral change / Type I binding spectra with P450 3A4, in words (human P450 3A4 [1]): induced spectral changes
- inhibition of P450 3A4 midazolam 4-hydroxylation, in words (human P450 3A4 [4]): not very effective inhibitors
SMILES: COc1ccccc1-c1cc(=O)c2ccccc2o1 [2’MF, 2’-Methoxyflavone]

- spectral change / Type I binding spectra with P450 3A4, in words (human P450 3A4 [1]): induced spectral changes
- inhibition of P450 3A4 midazolam 4-hydroxylation, in words (human P450 3A4 [4]): not very effective inhibitors
SMILES: COc1cccc(-c2cc(=O)c3ccccc3o2)c1 [3’MF, 3’-methoxyflavone]

- IC50 (human P450 1B1): 700 nM
- pattern of inhibition of P450 1B1 (kinetic analysis) (human P450 1B1; 357THF 0.02 µM, 4’57THFva 8.0 µM, 4’M57DHisoF 8.0 µM, results not shown): mixed-type
- spectral changes with P450 2C9, in words (human P450 2C9 [2]): did not induce spectral changes
SMILES: COc1ccc(-c2coc3cc(O)cc(O)c3c2=O)cc1 [4’M57DHIsoF, 4’-methoxy-5,7-dihydroxyisoflavone]

- IC50 (human P450 1A2): 240 nM
SMILES: C#CCOc1ccccc1-c1cc(=O)c2ccc3ccccc3c2o1 [ANF2’PE, α-naphthoflavone 2’-propargyl ether]

- spectral changes with P450 2C9, in words (human P450 2C9 [2]): Type I spectra
SMILES: CC(C(=O)O)c1ccc(-c2ccccc2)c(F)c1 (stereo not drawn) [flurbiprofen]
